Measured values reported in ChEMBL document CHEMBL1777727, “The role of the 4''-hydroxyl on motilin agonist potency in the 9-dihydroerythromycin series” (Bioorg Med Chem Lett, 2011).
In brackets after ≈: the same amount, converted by molar mass.

Assays:
Motilin receptor = Motilin receptor (Oryctolagus cuniculus, UniProt A5A4K8); assay: Agonist activity at motilin receptor in rabbit smooth muscle assessed as maximal possible tissue contraction; assay type: functional
hERG (KCNH2) [1] = molecular target: T1, hERG (KCNH2) (Homo sapiens, UniProt Q12809); assay: Inhibition of human ERG at 300 uM
T1 sequence (Q12809 whole entry): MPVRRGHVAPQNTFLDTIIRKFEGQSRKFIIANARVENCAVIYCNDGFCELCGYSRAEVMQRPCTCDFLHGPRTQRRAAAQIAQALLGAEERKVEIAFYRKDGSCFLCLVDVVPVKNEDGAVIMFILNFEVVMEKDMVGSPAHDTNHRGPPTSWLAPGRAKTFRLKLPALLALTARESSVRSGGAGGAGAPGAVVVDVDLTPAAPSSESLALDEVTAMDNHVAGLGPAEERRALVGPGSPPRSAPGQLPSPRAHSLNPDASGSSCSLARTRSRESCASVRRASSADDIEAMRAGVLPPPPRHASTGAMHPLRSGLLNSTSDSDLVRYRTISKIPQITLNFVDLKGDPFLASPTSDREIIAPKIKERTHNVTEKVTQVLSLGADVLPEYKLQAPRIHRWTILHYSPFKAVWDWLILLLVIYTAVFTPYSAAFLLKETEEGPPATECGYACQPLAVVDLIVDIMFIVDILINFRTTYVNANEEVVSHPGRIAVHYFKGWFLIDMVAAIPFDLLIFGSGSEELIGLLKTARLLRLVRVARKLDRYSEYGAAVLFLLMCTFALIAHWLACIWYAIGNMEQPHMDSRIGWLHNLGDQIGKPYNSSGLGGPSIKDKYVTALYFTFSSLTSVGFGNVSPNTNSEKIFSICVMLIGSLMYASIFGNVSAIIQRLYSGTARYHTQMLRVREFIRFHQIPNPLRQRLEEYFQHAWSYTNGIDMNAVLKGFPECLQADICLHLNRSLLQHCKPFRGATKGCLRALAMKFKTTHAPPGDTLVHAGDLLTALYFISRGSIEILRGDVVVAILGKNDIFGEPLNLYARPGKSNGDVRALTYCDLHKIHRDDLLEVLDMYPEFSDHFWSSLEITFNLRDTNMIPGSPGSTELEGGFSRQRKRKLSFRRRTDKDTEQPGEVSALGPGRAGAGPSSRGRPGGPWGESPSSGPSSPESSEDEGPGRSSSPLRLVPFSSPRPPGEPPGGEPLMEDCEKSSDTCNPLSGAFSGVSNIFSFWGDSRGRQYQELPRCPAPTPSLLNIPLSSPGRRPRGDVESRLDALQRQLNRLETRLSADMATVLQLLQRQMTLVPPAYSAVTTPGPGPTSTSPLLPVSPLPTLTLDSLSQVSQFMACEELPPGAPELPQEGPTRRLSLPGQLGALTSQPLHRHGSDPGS

hERG (KCNH2) [2] = molecular target: T1, hERG (KCNH2); assay: Inhibition of human ERG at 30 uM
Streptococcus pneumoniae = assay: Antimicrobial activity against erythromycin-sensitive Streptococcus pneumoniae ATCC 6301; assay type: functional
[3] = molecular target: Motilin receptor (Oryctolagus cuniculus) (UniProt A5A4K8); assay: Agonist activity at motilin receptor in rabbit smooth muscle assessed as tachyphylaxis at EC90 concentration after 4th dose; assay type: functional
Chain of Motilin receptor (Oryctolagus cuniculus) (A5A4K8 as listed by the source): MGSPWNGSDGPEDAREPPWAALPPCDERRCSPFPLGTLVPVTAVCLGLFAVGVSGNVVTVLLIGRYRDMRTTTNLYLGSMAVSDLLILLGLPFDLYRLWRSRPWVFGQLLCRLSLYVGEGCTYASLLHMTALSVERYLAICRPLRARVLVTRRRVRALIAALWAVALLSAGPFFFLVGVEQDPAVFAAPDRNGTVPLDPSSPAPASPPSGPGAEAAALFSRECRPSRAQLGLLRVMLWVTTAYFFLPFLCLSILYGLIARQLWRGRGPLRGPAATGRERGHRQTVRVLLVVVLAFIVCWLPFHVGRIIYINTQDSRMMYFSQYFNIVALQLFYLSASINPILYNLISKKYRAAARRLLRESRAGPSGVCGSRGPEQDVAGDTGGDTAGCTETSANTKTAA

[4] = molecular target: Voltage-gated inwardly rectifying potassium channel KCNH2 (Homo sapiens, UniProt Q12809); assay: Inhibition of human ERG
Chain of Voltage-gated inwardly rectifying potassium channel KCNH2 (Q12809 whole entry): as the sequence (Q12809 whole entry) above

Chain of Motilin receptor (A5A4K8 whole entry): as the sequence (A5A4K8 as listed by the source) above

EC50 (Motilin receptor) [µM]	MIC (Streptococcus pneumoniae) [mg/L]	Activity [3] [%]	SMILES	inhibition at 300 µM (hERG (KCNH2) [1]) [%]	inhibition at 30 µM (hERG (KCNH2) [2]) [%]	IC50 [4] [µM]
0.1	–	–	CC[C@H]1OC(=O)[C@H](C)[C@@H](O[C@H]2C[C@@](C)(OC)[C@@H](O)[C@H](C)O2)[C@H](C)[C@@H](O[C@@H]2O[C@H](C)C[C@H](N(C)CC(C)(C)O)[C@H]2O)[C@](C)(O)C[C@@H](C)[C@H](O)[C@H](C)[C@@H](O)[C@]1(C)O	–	–	–
0.19	128 (≈ 154 µM)	–	CC[C@H]1OC(=O)[C@H](C)[C@@H](O[C@H]2C[C@@](C)(OC)C[C@H](C)O2)[C@H](C)[C@@H](O[C@@H]2O[C@H](C)C[C@H](N(C)C(C)C)[C@H]2O)[C@](C)(O)C[C@@H](C)[C@H](OCC(=O)N(C)C)[C@H](C)[C@@H](O)[C@]1(C)O	100	50	–
0.059	64 (≈ 85.6 µM)	88	CC[C@H]1OC(=O)[C@H](C)[C@@H](O[C@H]2C[C@@](C)(OC)C[C@H](C)O2)[C@H](C)[C@@H](O[C@@H]2O[C@H](C)C[C@H](N(C)C(C)C)[C@H]2O)[C@](C)(O)C[C@@H](C)[C@H](O)[C@H](C)[C@@H](O)[C@]1(C)O	–	74	–
0.017	128 (≈ 156 µM)	–	CC[C@H]1OC(=O)[C@H](C)[C@@H](O[C@H]2C[C@@](C)(OC)C[C@H](C)O2)[C@H](C)[C@@H](O[C@@H]2O[C@H](C)C[C@H](N(C)C(C)C)[C@H]2O)[C@](C)(O)C[C@@H](C)[C@H](OCC(=O)NC)[C@H](C)[C@@H](O)[C@]1(C)O	97	57	30
0.14	128 (≈ 168 µM)	–	CC[C@H]1OC(=O)[C@H](C)[C@@H](O[C@H]2C[C@@](C)(OC)C[C@H](C)O2)[C@H](C)[C@@H](O[C@@H]2O[C@H](C)C[C@H](N(C)C[C@H](C)O)[C@H]2O)[C@](C)(O)C[C@@H](C)[C@H](O)[C@H](C)[C@@H](O)[C@]1(C)O	100	89	–
0.36	–	–	CC[C@H]1OC(=O)[C@H](C)[C@@H](O[C@H]2C[C@@](C)(OC)[C@@H](O)[C@H](C)O2)[C@H](C)[C@@H](O[C@@H]2O[C@H](C)C[C@H](N(C)C[C@H](C)O)[C@H]2O)[C@](C)(O)C[C@@H](C)[C@H](O)[C@H](C)[C@@H](O)[C@]1(C)O	–	–	–
0.12	> 128	–	CC[C@H]1OC(=O)[C@H](C)[C@@H](O[C@H]2C[C@@](C)(OC)C[C@H](C)O2)[C@H](C)[C@@H](O[C@@H]2O[C@H](C)C[C@H](N(C)C3CCC3)[C@H]2O)[C@](C)(O)C[C@@H](C)[C@H](O)[C@H](C)[C@@H](O)[C@]1(C)O	100	92	–
–	–	–	CC[C@H]1OC(=O)[C@H](C)[C@@H](O[C@H]2C[C@@](C)(OC)[C@@H](O)[C@H](C)O2)[C@H](C)[C@@H](O[C@@H]2O[C@H](C)C[C@H](N(C)C(C)C)[C@H]2O)[C@](C)(O)C[C@@H](C)[C@H](OCC(=O)N(C)C)[C@H](C)[C@@H](O)[C@]1(C)O	51	–	–
0.063	2 (≈ 2.67 µM)	94	CC[C@H]1OC(=O)[C@H](C)[C@@H](O[C@H]2C[C@@](C)(OC)C[C@H](C)O2)[C@H](C)[C@@H](O[C@@H]2O[C@H](C)C[C@H](N(C)CCO)[C@H]2O)[C@](C)(O)C[C@@H](C)[C@H](O)[C@H](C)[C@@H](O)[C@]1(C)O	–	68	–
0.35	–	–	CC[C@H]1OC(=O)[C@H](C)[C@@H](O[C@H]2C[C@@](C)(OC)[C@@H](O)[C@H](C)O2)[C@H](C)[C@@H](O[C@@H]2O[C@H](C)C[C@H](N(C)C3CCC3)[C@H]2O)[C@](C)(O)C[C@@H](C)[C@H](O)[C@H](C)[C@@H](O)[C@]1(C)O	–	–	–
–	–	22	CC[C@H]1OC(=O)[C@H](C)[C@@H](O[C@H]2C[C@@](C)(OC)[C@@H](O)[C@H](C)O2)[C@H](C)[C@@H](O[C@@H]2O[C@H](C)C[C@H](N(C)C(C)C)[C@H]2O)[C@]2(C)CC(C)=C(O2)[C@H](C)C(=O)[C@]1(C)OC	–	–	–
–	–	9	CC[C@H]1OC(=O)[C@H](C)[C@@H](O[C@H]2C[C@@](C)(OC)CC(C)O2)[C@H](C)[C@@H](O[C@@H]2O[C@H](C)C[C@H](N(C)CC)[C@H]2O)C2(C)CC(C)=C(O2)[C@H](C)[C@@H](O)[C@H]1C (single isomer, unassigned)	–	–	–
0.036	> 128	–	CC[C@H]1OC(=O)[C@H](C)[C@@H](O[C@H]2C[C@@](C)(OC)C[C@H](C)O2)[C@H](C)[C@@H](O[C@@H]2O[C@H](C)C[C@H](N(C)C(C)C)[C@H]2O)[C@](C)(O)C[C@@H](C)[C@H](OCC(N)=O)[C@H](C)[C@@H](O)[C@]1(C)O	86	28	–
–	–	–	CC[C@H]1OC(=O)[C@H](C)[C@@H](O[C@H]2C[C@@](C)(OC)[C@@H](O)[C@H](C)O2)[C@H](C)[C@@H](O[C@@H]2O[C@H](C)C[C@H](N(C)C(C)C)[C@H]2O)[C@](C)(O)C[C@@H](C)[C@H](OCC(N)=O)[C@H](C)[C@@H](O)[C@]1(C)O	29	–	–
0.024	128 (≈ 165 µM)	–	CC[C@H]1OC(=O)[C@H](C)[C@@H](O[C@H]2C[C@@](C)(OC)C[C@H](C)O2)[C@H](C)[C@@H](O[C@@H]2O[C@H](C)C[C@H](N(C)CC(C)(C)O)[C@H]2O)[C@](C)(O)C[C@@H](C)[C@H](O)[C@H](C)[C@@H](O)[C@]1(C)O	100	86	–
> 5	–	–	CC[C@H]1OC(=O)[C@H](C)[C@@H](O[C@H]2C[C@@](C)(OC)C[C@H](C)O2)[C@H](C)[C@@H](O[C@@H]2O[C@H](C)C[C@H](N(C)CC(=O)NC)[C@H]2O)[C@](C)(O)C[C@@H](C)[C@H](O)[C@H](C)[C@@H](O)[C@]1(C)O	–	–	–
0.21	–	–	CC[C@H]1OC(=O)[C@H](C)[C@@H](O[C@H]2C[C@@](C)(OC)[C@@H](O)[C@H](C)O2)[C@H](C)[C@@H](O[C@@H]2O[C@H](C)C[C@H](N(C)CCO)[C@H]2O)[C@](C)(O)C[C@@H](C)[C@H](O)[C@H](C)[C@@H](O)[C@]1(C)O	–	–	–
